Data from US4321212A, “Method for preparing an optically active α-cyano-3-phenoxybenzyl 2-(4-substituted-phenyl)isovalerate” (Sumitomo Chemical Company Limited, priority 1980, dated 1982).
≈ marks a conversion by molar mass, not a printed value.

Tests used:
[1] = system: houseflies; assay: Topical application to female adult WHO-strain houseflies (Test Example 2); type: in vivo, housefly, WHO-strain (standard susceptible strain); conditions: 0.5 μl acetone solution to the thorax, female adults, 24 hours
Protocol: The compounds of this invention, (1), (2), (3), (4) and (5), were diluted with acetone to a predetermined concentration, and 0.5 μl of each solution was topically applied to the thorax of female adult WHO-strain houseflies (standard susceptible strain) with a microsyringe. The flies were placed in plastic cups each having a diameter of 11 cm in which a bait (3% sugar water) was placed. 24 hours later, the alive and dead was evaluated to determine the LD50 (median lethal dose) (μg/housefly).

[2] = system: carmine mites; assay: Spray test against carmine mites on potted kidney beans (Test Example 3); type: in vivo, carmine mite; conditions: 20% emulsifiable concentrate diluted 500-fold with water, 10 ml/pot, after 10 days
Protocol: 10 to 15 female adult carmine mites were placed on each leaf of potted kidney beans (2-leaf stage) 9 days old after seeding. After standing in a constant temperature room at 27° C. for a week, a lot of mites in various growth stages were observed on the beans. Each of the emulsifiable concentrates prepared from the compounds of this invention, (1), (2), (3), (4), and (5), in the procedures described in Formulation Example 2 was diluted 500-fold with water and sprayed to the beans on a turntable in a proportion of 10 ml/pot.

[3] = system: tobacco cutworms; assay: Leaf-dip test on fourth instar larvae of tobacco cutworms (Test Example 1); type: in vivo, tobacco cutworm; conditions: foliar, cabbage leaf dip 1 minute, emulsifiable concentrate diluted with water, 24 hours, 10 larvae per group, three replications, read-out: LC50 (concentration required for 50% death)
Protocol: Each of the emulsifiable concentrates prepared from the compounds of this invention, (4) and (5), in the procedures described in Formulation Example 2 was diluted with water to a pre-determined concentration, and mixed with 3,000 times by weight based on the diluted solution of a spreader (Shin-Rino, a registered trademark of Nippon Noyaku Co., Ltd., for a mixture containing 20% of an alkylphenol polyethylene glycol ether and 12% of a salt of lignin sulfonic acid).
The dried leaves were placed in plastic cups (diameter 10 cm, height 4 cm) at a rate of 2 leaves/cup, and the fourth instar larvae of tobacco cutworms were liberated therein. The dead and alive was evaluated after 24 hours and the values of LC50 (concentration required for 50% death) were obtained.
Experiments of three replications were carried out using 10 larvae per group.

Row | Compound | LD50 (median lethal dose) [1] | damage of the kidney beans by the mites [2] | LC50 [3]
1 | CC(C)C(C(=O)OC(C#N)c1cccc(Oc2ccccc2)c1)c1ccc(OC(F)F)cc1 (racemic) [(b), reference compound] | 0.15 μg/housefly |  | 
2 | COc1ccc(C(C(=O)OC(C#N)c2cccc(Oc3ccccc3)c2)C(C)C)cc1 (racemic) [Reference Compound (a), reference compound] | 0.35 μg/housefly |  | 
3 | COc1ccc([C@@H](C(=O)OC(C#N)c2cccc(Oc3ccccc3)c2)C(C)C)cc1 (stereo partly drawn) [Compound (2), α-cyano-3-phenoxybenzyl S-(+)-2-(4-methoxyphenyl)isovalerate] | 0.13 μg/housefly | hardly observed | 
4 | COc1ccc([C@@H](C(=O)OC(C#N)c2cccc(Oc3ccccc3)c2)C(C)C)cc1 (stereo partly drawn) [Compound (1), α-cyano-3-phenoxybenzyl S-(+)-2-(4-methoxyphenyl)isovalerate] | 0.18 μg/housefly | hardly observed | 
5 | CC(C)[C@H](C(=O)OC(C#N)c1cccc(Oc2ccccc2)c1)c1ccc(OC(F)F)cc1 (stereo partly drawn) [Compound (5), α-cyano-3-phenoxybenzyl S-(+)-2-(4-difluoromethoxyphenyl)isovalerate] | 0.042 μg/housefly | hardly observed | 6.9 µg/mL (≈ 15.3 µM)
6 | CC(C)[C@H](C(=O)O[C@H](C#N)c1cccc(Oc2ccccc2)c1)c1ccc(OC(F)F)cc1 [Compound (4), α-cyano-3-phenoxybenzyl S-(+)-2-(4-difluoromethoxyphenyl)isovalerate] | 0.038 μg/housefly | hardly observed | 5.9 µg/mL (≈ 13.1 µM)
7 | COc1ccc([C@@H](C(=O)O[C@H](C#N)c2cccc(Oc3ccccc3)c2)C(C)C)cc1 [Compound (3), (S)-α-cyano-3-phenoxybenzyl S-(+)-2-(4-methoxyphenyl)isovalerate] | 0.10 μg/housefly | hardly observed | 
